Like-named read-outs stand apart in the source and are kept apart here.
Assays:
[1] = system: U-87 (Uppsala 87) Glioma cell lines; assay: Sulforhodamine B assay, U-87 drug sensitive Glioma cells; assay type: cell-based; conditions: for U-87/WT SI: SI = CC50 of Vero cell line /IC50 of Cancer cell line after 72 h; for IC50: 72 h, SRB, Mean ± Standard Deviations in Table 4, read-out: U-87/WT IC50
Protocol: (§1) In order to test the growth inhibition potential of the TMZ and Acridone derivatives on Glioma, the U-87 (Uppsala 87) Glioma cell lines and T-98 (Temozolomide resistant) Glioma cell lines were treated with Temozolomide (TMZ) and Acridone derivatives AC2, AC7, and AC26. The African Green Monkey Kidney Vero cell lines were used as control for the study. The Vero cell lines were obtained from the National Center for Cell Sciences (NCCS), Pune, while the U-87 and T-98 cell lines were carried in the lab of Dr. GJ Peters, Cancer Center Amsterdam (CCA), VU University Medical Center, Amsterdam, Netherlands. The Mycoplasma testing was done by using the Universal Mycoplasma Detection Kit (ATCC® 30-1012K™) every 6 months. The Vero cell lines have been used as control as they are normal kidney epithelial cells and are non-cancerous in nature. The Vero cell lines have been routinely used for testing cytotoxicity of small molecules by various researchers ([22], [23]). Also, in our previous study, Vero cell lines have been used for testing safety and efficacy of Acridone derivatives for Lung, Cervical, and Breast Cancer studies ([13]).
(§2) Cell viability was found using the Sulforhodamine B (SRB) assay to measure the cellular protein content which provides better sensitivity in comparison to MTT assay ([24]). Moreover, as this method is dependent on the property of the SRB dye, it acts by binding to proteins under slightly acidic conditions and can be exposed to basic conditions for its extraction. The resulting amount of bound dye is then utilized as a proxy for cell mass ([25]). This cell mass can then be extrapolated to measure cell growth.
(§3) Glioma cells were cultured in Gibco (RPMI 1640) complemented with 10% fetal calf serum (Gibco). The cultures were then treated with trypsin-EDTA in order to detach/separate the cells from their culture flasks. The quickly proliferating cells were harvested, counted and plated at suitable concentrations in 96-well microplates. These microplates were subsequently incubated for 24 h. After incubation, drug compounds were dissolved in the culture media and placed in 96 well plates in triplicates, which were again incubated at 37°C under 5% CO2 for 72 h. 72 h later, the plates were removed and the cells were treated with cold Trichloroacetic acid (TCA) to fix the cultures and. 0.4% of SRB dissolved in 1% acetic acid was then added to the culture in order to stain the cells. Next, the bound stain was dissolved in 150 μl of 10 mM unbuffered Tris base left on a gyrator shaker. Thereafter, absorbance of the solution was measured at 540 nm utilizing a microplate reader. Absorbance readings (triplicate values) recorded were used to calculate percentage growth inhibition due to the effect of drugs using the following equations.
% Cell growth = Absorbance sample/Absorbance of control or untreated × 100
% Growth inhibition = 100 - % cell growth
The IC50 was calculated based on the log graph sheet which was developed in-house at the CCA, VU University Medical Center.
Selectivity Index (SI) is a ratio that measures the window between cytotoxicity and anticancer activity of the drugs ([26]). […] Here, IC50 is the inhibition concentration for inhibiting 50% of cancer cells and CC50 is cytotoxic concentration causing death of 50% viable cells in the host.

[2] = design: method as in PMID 21565270; conditions: cited from earlier work
[3] = system: Drug resistant cancer cells (CR), T-98; assay: Mathematical tumor growth model simulation and Bliss synergy, drug resistant cancer cells
[4] = Sulforhodamine B assay, Vero control cells; assay type: cell-based; conditions: African green monkey, Vero cells (normal kidney epithelial cells), SRB, read-out: Vero cell Line CC50
Protocol: as §1, §2
as §3, with “0.4% of SRB dissolved in 1% acetic acid was then added to the culture in order to stain the cells. Next, the bound stain was dissolved in 150 μl of 10 mM unbuffered Tris base left on a gyrator shaker.” left out
% Cell growth = Absorbance sample/Absorbance of control or untreated × 100 […]
The IC50 was calculated based on the log graph sheet which was developed in-house at the CCA, VU University Medical Center. […]

[5] = Acute Oral Toxicity - Fixed Dose procedure; assay type: in vivo; conditions: for clinical sign of toxicity: oral, single dose, 14 days observation, female albino Wistar rats
Protocol: Animal study was conducted for acridone derivatives AC2, AC7, and AC26 alone and in combination with Temozolomide for Acute Oral Toxicity - Fixed Dose procedure. The Institutional Animal Ethics Committee bearing CPCSEA/IAEC/P-52/2016 was approved for undertaking the study. Acute oral toxicity was conducted on female albino Wistar rats for 8–12 weeks and were maintained at 25 ± 2 °C in a conditioned room with 50–60% of humidity and free access to food and water was given. Rats were kept for fasting overnight (12 h) before dosing and weights were recorded periodically. Rats in two groups were given acridone derivatives alone at a dose of […], rats in two groups were given a combination of Temozolomide : acridone derivatives at dose of 10:1 mg/kg and 15:1.5 mg/kg body weight and one group was kept as control. Dose of Temozolomide was taken as per previously published article ([50]). Compounds alone and combination were suspended in 2.0% of Tween 80 in normal saline and control group was taken for vehicle only. After administering the compound, food was not provided for 3 h. All the rats were monitored periodically for 1 h upto 12 h on the 1st day and thereafter twice in a day for mortality, behavioral changes, signs and symptoms of toxicity for 14 days. Individual weights of rats were taken for all the 14 days and study was conducted twice for each dose.

| Compound | U-87/WT SI [1] | IC50 ([1]; U87WT) [µM] | cytotoxicity in comparison to the other acridone derivatives [2] [times] | CC50 at 72 h [4] [µM] | Body weight (g) Day 0 ([5]; 300 mg/kg oral) [g] | Body weight (g) Day 1 ([5]; 300 mg/kg oral) [g] | Body weight (g) Day 2 ([5]; 300 mg/kg oral) [g] | Body weight (g) Day 3 ([5]; 300 mg/kg oral) [g] | Body weight (g) Day 4 ([5]; 300 mg/kg oral) [g] | Body weight (g) Day 5 ([5]; 300 mg/kg oral) [g] | Body weight (g) Day 6 ([5]; 300 mg/kg oral) [g] | Body weight (g) Day 7 ([5]; 300 mg/kg oral) [g] | Body weight (g) Day 8 ([5]; 300 mg/kg oral) [g] | Body weight (g) Day 9 ([5]; 300 mg/kg oral) [g] | Body weight (g) Day 10 ([5]; 300 mg/kg oral) [g] | Body weight (g) Day 11 ([5]; 300 mg/kg oral) [g] | Body weight (g) Day 12 ([5]; 300 mg/kg oral) [g] | Body weight (g) Day 13 ([5]; 300 mg/kg oral) [g] | Body weight (g) Day 14 ([5]; 300 mg/kg oral) [g] | Body weight (g) Day 0 ([5]; 2000 mg/kg oral) [g] | further results |
| --- | --- | --- | --- | --- | --- | --- | --- | --- | --- | --- | --- | --- | --- | --- | --- | --- | --- | --- | --- | --- | --- |
| O=C(NN=CC=Cc1ccccc1)c1cccc2c(=O)c3ccccc3[nH]c12 [AC2, 9-oxo-N'-(3-phenylallylidene)-9,10-dihydroacridine-4-carbohydrazide] | 36.73 | 1.53 ± 0.85 | 100 | 56.2 | 185 ± 6 | 186 ± 12 | 189 ± 10 | 191 ± 15 | 192 ± 12 | 193 ± 22 | 195 ± 12 | 196 ± 10 | 194 ± 12 | 195 ± 10 | 198 ± 15 | 199 ± 16 | 201 ± 10 | 203 ± 6 | 205 ± 18 | 173 ± 8 | % fold change [(final-initial)/initial]*100 ([3]; combination TMZ + AC2): 3.26%; Fold change = final IC50/initial IC50 ([3]; combination TMZ + AC2): 0.96; Body weight (g) Day 1 ([5]; 2000 mg/kg oral): 175 ± 11 g; Body weight (g) Day 2 ([5]; 2000 mg/kg oral): 176 ± 8 g; Body weight (g) Day 3 ([5]; 2000 mg/kg oral): 178 ± 12 g; Body weight (g) Day 4 ([5]; 2000 mg/kg oral): 180 ± 14 g; Body weight (g) Day 5 ([5]; 2000 mg/kg oral): 183 ± 15 g; Body weight (g) Day 6 ([5]; 2000 mg/kg oral): 185 ± 12 g; Body weight (g) Day 7 ([5]; 2000 mg/kg oral): 188 ± 16 g; Body weight (g) Day 8 ([5]; 2000 mg/kg oral): 190 ± 12 g; Body weight (g) Day 9 ([5]; 2000 mg/kg oral): 192 ± 16 g; Body weight (g) Day 10 ([5]; 2000 mg/kg oral): 195 ± 12 g; Body weight (g) Day 11 ([5]; 2000 mg/kg oral): 197 ± 8 g; Body weight (g) Day 12 ([5]; 2000 mg/kg oral): 199 ± 12 g; Body weight (g) Day 13 ([5]; 2000 mg/kg oral): 202 ± 15 g; Body weight (g) Day 14 ([5]; 2000 mg/kg oral): 206 ± 7 g; clinical sign of toxicity [5]: No clinical sign of toxicity was observed |
| O=C(NN=Cc1ccccc1Cl)c1cccc2c(=O)c3ccccc3[nH]c12 [AC7, N'-(2-chlorobenzylidene)-9-oxo-9,10-dihydroacridine-4-carbohydrazide] | 8.49 | 5.67 ± 0.58 | 100 | 48.2 | 175 ± 10 | 176 ± 14 | 178 ± 10 | 181 ± 8 | 183 ± 12 | 185 ± 15 | 188 ± 11 | 192 ± 12 | 194 ± 12 | 196 ± 14 | 195 ± 11 | 197 ± 16 | 199 ± 12 | 202 ± 10 | 205 ± 18 | 180 ± 8 | % fold change [(final-initial)/initial]*100 ([3]; combination TMZ + AC7): 8.5%; Fold change = final IC50/initial IC50 ([3]; combination TMZ + AC7): 0.91; Body weight (g) Day 1 ([5]; 2000 mg/kg oral): 181 ± 12 g; Body weight (g) Day 2 ([5]; 2000 mg/kg oral): 183 ± 8 g; Body weight (g) Day 3 ([5]; 2000 mg/kg oral): 185 ± 14 g; Body weight (g) Day 4 ([5]; 2000 mg/kg oral): 187 ± 6 g; Body weight (g) Day 5 ([5]; 2000 mg/kg oral): 189 ± 11 g; Body weight (g) Day 6 ([5]; 2000 mg/kg oral): 192 ± 16 g; Body weight (g) Day 7 ([5]; 2000 mg/kg oral): 193 ± 15 g; Body weight (g) Day 8 ([5]; 2000 mg/kg oral): 197 ± 10 g; Body weight (g) Day 9 ([5]; 2000 mg/kg oral): 198 ± 18 g; Body weight (g) Day 10 ([5]; 2000 mg/kg oral): 201 ± 8 g; Body weight (g) Day 11 ([5]; 2000 mg/kg oral): 204 ± 10 g; Body weight (g) Day 12 ([5]; 2000 mg/kg oral): 206 ± 14 g; Body weight (g) Day 13 ([5]; 2000 mg/kg oral): 208 ± 12 g; Body weight (g) Day 14 ([5]; 2000 mg/kg oral): 211 ± 16 g; clinical sign of toxicity [5]: No clinical sign of toxicity was observed |
| CC(=NNC(=O)c1cccc2c(=O)c3ccccc3[nH]c12)c1ccccc1O [AC26, N'(1-(2-hydroxyphenyl)ethylidene)-9-oxo-9,10-dihydroacridine-4-carbohydrazide] | 73.42 | 0.9 ± 0.1 | 100 | 66.1 | 178 ± 10 | 182 ± 8 | 183 ± 12 | 184 ± 16 | 187 ± 10 | 189 ± 16 | 191 ± 12 | 194 ± 18 | 196 ± 12 | 199 ± 10 | 201 ± 14 | 202 ± 16 | 205 ± 12 | 207 ± 8 | 209 ± 18 | 181 ± 11 | IC50 ([1]; listed as Acridone 26): 1 µM; Fold change = final IC50/initial IC50 ([3]; combination TMZ + AC26): 0.88; Body weight (g) Day 1 ([5]; 2000 mg/kg oral): 182 ± 15 g; Body weight (g) Day 2 ([5]; 2000 mg/kg oral): 185 ± 10 g; Body weight (g) Day 3 ([5]; 2000 mg/kg oral): 188 ± 11 g; Body weight (g) Day 4 ([5]; 2000 mg/kg oral): 189 ± 18 g; Body weight (g) Day 5 ([5]; 2000 mg/kg oral): 193 ± 22 g; Body weight (g) Day 6 ([5]; 2000 mg/kg oral): 195 ± 16 g; Body weight (g) Day 7 ([5]; 2000 mg/kg oral): 199 ± 19 g; Body weight (g) Day 8 ([5]; 2000 mg/kg oral): 200 ± 14 g; Body weight (g) Day 9 ([5]; 2000 mg/kg oral): 202 ± 10 g; Body weight (g) Day 10 ([5]; 2000 mg/kg oral): 206 ± 8 g; Body weight (g) Day 11 ([5]; 2000 mg/kg oral): 207 ± 9 g; Body weight (g) Day 12 ([5]; 2000 mg/kg oral): 209 ± 4 g; Body weight (g) Day 13 ([5]; 2000 mg/kg oral): 211 ± 12 g; Body weight (g) Day 14 ([5]; 2000 mg/kg oral): 215 ± 20 g; clinical sign of toxicity [5]: No clinical sign of toxicity was observed |

Reference: paper PMC8006935, “Study of Combinatorial Drug Synergy of Novel Acridone Derivatives With Temozolomide Using in-silico and in-vitro Methods in the Treatment of Drug-Resistant Glioma” (Frontiers in Oncology, 2021)
